Laboratory results as given in patent US20250031733A1, “Mint Flavor Compositions” (The Procter & Gamble Company, priority 2020, published 2025).

What was measured:
[1] = Expert sensory testing of racemic menthol vs (−)-menthol in toothpaste (CREST Cavity) with standard spearmint flavor; type: in vivo
Protocol: In separate, unpublished internal experiments, perceptual experiences of racemic menthol are quantified via expert sensory testing. The use of a standard spearmint flavor (minimizing extra menthol contribution) compared racemic menthol to (−)-menthol in a toothpaste formulation (CREST Cavity). There are several sensory observations taken from these experiments. […] These aromatic notes appear during brushing and disappear after 5-10 minutes post expectoration and are more pronounced as concentrations increase.

[2] = Comparison of cooling attributes of (−)-menthol and racemic menthol in toothpaste (Crest Cavity formulation); type: in vivo
Text: The following data helps support the use of racemic menthol to reduce costs of mint flavor compositions herein described. From internal unpublished research, Table B compares replacing (−)-menthol with a racemic menthol in a 1:1 in a toothpaste formulation. Such a direct replacement is not preferred given the reduced cooling profile and olfactory differences; however, a portion of L-menthol is preferably replaced by racemic-menthol to gain cost efficiency while minimizing impact to the overall mint flavor profiles.
This value represents the concentration of a coolant where 50% of its maximal cooling is observed.

## CC1CCC(C(C)C)C(O)C1 (racemic) [Racemic Menthol]
[1]
  less potent than (−)-menthol for cooling: 25-30%
[2]
  Potency compared to L-Menthol: ~0.65-0.7x
  Time Point at Maximum Cooling: ~1 min
[2]; 60 = greatest amount of cooling, 0 = least
  Maximum Cooling (0-60 scale): 35
[2]; concentration of coolant where 50% of maximal cooling is observed
  EC 50: 1,250 to 1,500 parts per million
[2]; cooling
  Maximum Longevity: Up to 20 minutes
